Assays:
MB 231 (TNBC) = assay: Palbociclib sensitivity of breast cancer line; assay type: cell-based; conditions: Homo sapiens; MB 231, moderate-responder
MCF7 (ER/PR+, Her2-) = assay: Palbociclib sensitivity of breast cancer line; assay type: cell-based; conditions: Homo sapiens; MCF7, high responder
cdk2 = target: T1, cdk2 (Homo sapiens, UniProt P24941); assay: Immunoblot of cdk2T160 as measure of activated cdk2 (FIG. 10); assay type: cell-based; conditions: MCF7, drugs at IC50
T1 construct: added to or expressed in MCF7 breast cancer cells on day 2 post plating; endogenous in cells; host or cells: MCF7 (ALT-MCF7 tetracycline-inducible line)
Description: FIG. 10: ALT BRK inhibits both CDK4 and CDK2. ALT, Palbociclib alone or in combination were added to or expressed in MCF7 breast cancer cells on day 2 post plating. Drugs were added at their IC50 concentration, based on previous results. ALT is expressed from an ALT-MCF7 tetracycline inducible cell line generated in the Blain lab. When tetracycline is added to the cell culture media, ALT is expressed in these cells. Vector: no tetracycline was added, so no ALT induction was detected. Drugs and media were replaced every two days. Cells were harvested every two days, lysed and used in immunoblot analysis. Actin: loading control. pRBser780 is a phospho-specific antibody that recognizes sites phosphorylated by cdk4, so is a measure of active cdk4. cdk2T160 recognizes a required phosphorylation event on residue […] and is a measure of activated cdk2.
(§1) Additional experiments were performed assessing activity of Brk in combination with Palbociclib. The data presented in FIGS. 9A and 9B reveal that Palbociclib and Brk inhibit proliferation for 2 days, and then resistance is observed (proliferation increases). Alt maintained arrest for roughly 10 days (50% inhibition of proliferation is detected). […] Alt-Brk/Palbociclib combination leads to a more durable cell cycle arrest. Mono therapy treated cells start to become resistant between day 8-10. […]

[1] = system: MCF7 WT Brk expressing cells; assay: PI staining and FACS analysis, % G1 content; assay type: cell-based, human; conditions: PD0332991 up to 100 nM
Description: (§2) Immunoprecipitation with IgG served as a negative control (FIG. 6C). DNA with Hoechst stain is in blue and is merged with red and green staining (FIG. 6D). (FIG. 6E) Cdk4 was immunoprecipitated from the lysates and recombinant Rb was added to perform an in vitro kinase assay in the presence of ATP Immunoblot analysis was performed to probe for Rb, Ser780 pRb and cdk4 Immunoprecipitation with IgG served as a negative control. (FIG. 6F) Cells were treated with different concentrations of PD0332291 or DMSO as a control at Day 2. Total cell numbers were analyzed by counting 24 and 48 hours post treatment to determine IC50 values. (FIG. 6G) Cells were treated with different concentration of PD032291 or DMSO and analyzed by PI staining and FACS analysis. % G1 content is plotted.
The PCR fragments were ligated to the T7pGEMEX human His-p27 or T7pGEMEX human Flag-p27 plasmid for expression in E. coli. Mutants Y74F, Y88F, and Y88/89F were previously described (12). Flag-tagged p27 mutants were purified by Flag-immunoprecipitation with Flag antibody (M-2, Sigma F-18C9) and eluted with Flag peptide (Sigma F-4799) according to manufacturer's protocol. His-tagged p27 mutants were purified by FPLC via his-trap affinity chromatography (His-Trap HP, GE Healthcare 71-5247-01). The affinity column was stripped according to manufacturer's protocol, then washed with 5 column volumes of 100 mM CoCl2. […]

MCF10A = assay: PD0332991 inhibitor treatment, proliferation by cell counting; assay type: cell-based; conditions: Homo sapiens, MCF-10A, 48 h post treatment, read-out: IC50 (concentration needed to inhibit proliferation by 50%)
Description: as §2
(§3) The PCR fragments were ligated to the T7pGEMEX human His-p27 or T7pGEMEX human Flag-p27 plasmid for expression in E. coli. Mutants Y74F, Y88F, and Y88/89F were previously described (12). Flag-tagged p27 mutants were purified by Flag-immunoprecipitation with Flag antibody (M-2, Sigma F-18C9) and eluted with Flag peptide (Sigma F-4799) according to manufacturer's protocol. His-tagged p27 mutants were purified by FPLC via his-trap affinity chromatography (His-Trap HP, GE Healthcare 71-5247-01). The affinity column was stripped according to manufacturer's protocol, then washed with 5 column volumes of 100 mM CoCl2. The crude material was applied with a loading buffer consisting of 6 M urea, 500 mM NaCl, 50 mM Tris-HCl, pH 7.5 and 20% glycerol. The material was washed with 500 mM NaCl, 50 mM Tris-HCl, pH 7.5 and 10% glycerol. The purified material was eluted with 500 mM imidazole,20 mM Hepes pH 7.4 and 1 M KCl. The protein was then dialyzed overnight in a solution of 25 mM Hepes pH 7.7, 150 mM NaCl, 5 mM MgCl2 and 0.05% NP40.

MDA MB-468 cells = assay: as above; assay type: cell-based; conditions: Homo sapiens, 48 h post treatment, read-out: IC50 (concentration needed to inhibit proliferation by 50%)
Description: as §2, §3

[2] = system: MCF7 WT Brk expressing cells; assay: as above; assay type: cell-based; conditions: Homo sapiens, 48 h post treatment, read-out: IC50 (concentration needed to inhibit proliferation by 50%)
Description: as §2, §3

Mock MCF7 cells = assay: as above; assay type: cell-based; conditions: Homo sapiens, 48 h post treatment, read-out: IC50 (concentration needed to inhibit proliferation by 50%)
Description: as §2, §3

MCF7 breast cancer cells = assay: Proliferation with ALT and Palbociclib at IC50 concentration (FIG. 9); assay type: cell-based, human; conditions: drugs at IC50 concentration, replaced every two days
Description: FIGS. 9A-9B: AltBrk Synergizes with Palbociclib. ALT, Palbociclib, or Brk alone or in combination were added to or expressed in MCF7 breast cancer cells on day 2 post plating. Drugs were added at their IC50 concentration, based on previous results. ALT is expressed from an ALT-MCF7 tetracycline inducible cell line generated in the Blain lab. When tetracycline is added to the cell culture media, ALT is expressed in these cells. Vector: no tetracycline was added, so no ALT induction was detected. (FIG. 9A) Cells were harvested and counted every two days, as a measure of proliferation. Proliferation is plotted as a percentage relative to that seen in the DMSO treated control. Drugs and media were replaced every two days. (FIG. 9B) Viability was measured by trypan blue staining, and plotted relative to viability seen in the DMSO treated control.
as §1

**Q.** For `CC(=O)c1c(C)c2cnc(Nc3ccc(N4CCNCC4)cn3)nc2n(C2CCCC2)c1=O` [PD0332991], which IC50 (MB 231 (TNBC)) is on record?
**A.** Its IC50 is 400 nM.

**Q.** And the IC50 (MCF7 (ER/PR+, Her2-))?
**A.** Its IC50 is 200 nM.

**Q.** And the “cdk2 activity (cdk2T160)” value (cdk2)?
**A.** The value was “does not inhibit cdk2”.

**Q.** And the G1 content [1]?
**A.** The G1 content was “approximately 55%”.

**Q.** And the IC50 (MCF10A)?
**A.** Its IC50 is 110 nM.

**Q.** And the IC50 (MDA MB-468 cells)?
**A.** Its IC50 is 350 nM.

**Q.** What about the IC50 [2] of the same molecule?
**A.** The IC50 was > 600 nM.

**Q.** What about the IC50 (Mock MCF7 cells) of the same molecule?
**A.** Its IC50 is 150 nM.

**Q.** And the “duration of proliferation inhibition / arrest” value (MCF7 breast cancer cells)?
**A.** The value was 2 days.
